# Assay results reported in US6706737B2, “Alkoxy substituted benzimidazole compounds, pharmaceutical preparations containing the same, and methods of using the same” (priority 1999, dated 2004).
# Where “and” joins values, the source holds several entries; their conditions need not be identical. Equal entries are not always repeated.
# Assay: Solubility assessment as a function of HPβCD concentration
# Format: physicochemical
# Protocol: Solubility studies were performed by the addition of a known mass of 5(6)-methoxy-2[[(methoxy-3,5-dimethyl-2-pyridinyl)-methyl]sulfinyl]-1H-benzimidazole and/or HP CD to a given volume of solvent system. Solubilities were determined by observation, as the maximum concentration at which 5(6)-methoxy-2-[[(4-methoxy-3,5-dimethyl-2-pyridinyl)-methyl]sulfinyl]-1H-benzimidazole completely dissolved. Additionally, concentrations of 5(6)-methoxy-2-[[(4-methoxy-3,5-dimethyl-2-pyridinyl)methyl]sulfinyl]-1H-benzimidazole and HP CD at set molar ratios were solubilized in systems of high pH (adjusted as high as 12.2, with 1N NaOH), the pH was adjusted (using 2N HCl) in a stepwise downward manner until precipitation occurred.
# The solubility of 5(6)-methoxy-2-[[(4-methoxy-3,5-dimethyl-2-pyridinyl)-methyl]sulfinyl]-1H-benzimidazole was assessed as a function of HPβCD concentration in water. […] In general, the solubility of the active ingredient is influenced by solution pH.
# The procedure according to Example 86 was repeated except that water with a borate buffer (pH of 8) was employed.
# The procedure according to Example 86 was repeated except that water with a phosphate buffer (pH of 11) was employed.
structure (smiles),measurement,setting,value
"COc1ccc2[nH]c([S+]([O-])Cc3ncc(C)c(OC)c3C)nc2c1 (stereo not shown) [5(6)-methoxy-2-[[(4-methoxy-3,5-dimethyl-2-pyridinyl)-methyl]sulfinyl]-1H-benzimidazole]",aqueous solubility,water,approximately 0.3 mg/mL and ~0.9 mM
same,solubility as a function of HPβCD concentration,water,increase linearly
same,solubility as a function of HPβCD concentration,water with a borate buffer (pH of 8),increase linearly
same,solubility as a function of HPβCD concentration,water with a phosphate buffer (pH of 11),increase linearly
